These are literature values, as cited in patent US9694008B2, “Fast-dissolving oral film preparation comprising aripiprazole” (CMG Pharmaceutical CO., LTD., priority 2012, dated 2017).

For this data set the following is noted: at 25° C.

Turning to `O=C1CCc2ccc(OCCCCN3CCN(c4cccc(Cl)c4Cl)CC3)cc2N1` [aripiprazole, 7-{4-[4-(2,3-dichlorophenyl)piperazin-1-yl]butoxy}-3,4-dihydroquinolin-2(1H)-one], the Solubility in water entry is “about 0.00001 w/v %”.
